{"source": "ChEMBL document CHEMBL4699625", "about": "“Callyspongiolide Is a Potent Inhibitor of the Vacuolar ATPase” (J Nat Prod, 2020)", "key": {"[1]": {"test": "Inhibition of V-ATpase in Saccharomyces cerevisiae […] vacuolar membranes after 10 mins by spectrophotometric based coupled enzyme assay", "assay_type": "cell membranes, Saccharomyces cerevisiae W303, Membrane"}, "Saccharomyces cerevisiae [2]": {"system": "Saccharomyces cerevisiae", "test": "Growth inhibition of Saccharomyces cerevisiae W303 at 10 uM after 2 to 3 days in glycerol condition relative to control", "assay_type": "functional", "conditions": "time day 2-3, read-out: GI"}, "[3]": {"system": "Saccharomyces cerevisiae W303", "test": "Inhibition of V-ATpase in Saccharomyces cerevisiae W303 assessed as quinacrine accumulation in the cytosol at 10 uM after 4 hrs by fluorescence microscopic method", "assay_type": "subcellular"}, "Saccharomyces cerevisiae [4]": {"system": "Saccharomyces cerevisiae", "test": "Growth inhibition of Saccharomyces cerevisiae W303 pdr5 deletion mutant at 10 uM after 2 to 3 days in ammonium iron(II) sulfate condition", "assay_type": "functional, organism-based", "conditions": "time day 2-3"}, "Saccharomyces cerevisiae [5]": {"system": "Saccharomyces cerevisiae", "test": "Growth inhibition of Saccharomyces cerevisiae W303 at 10 uM after 2 to 3 days in ammonium iron(II) sulfate condition", "assay_type": "functional, organism-based", "conditions": "time day 2-3"}, "Saccharomyces cerevisiae [6]": {"system": "Saccharomyces cerevisiae", "test": "Growth inhibition of Saccharomyces cerevisiae W303 pdr5 deletion mutant at 0.5 to 10 uM after 2 to 3 days at pH 5 condition", "assay_type": "functional, organism-based", "conditions": "dose microM 0.5-10, time day 2-3"}, "Jurkat [7]": {"system": "Jurkat", "test": "Cytotoxicity against human Jurkat cells assessed as reduction in cell viability", "assay_type": "functional, cell-based"}, "Saccharomyces cerevisiae [8]": {"system": "Saccharomyces cerevisiae", "test": "Growth inhibition of Saccharomyces cerevisiae W303 at 0.5 to 10 uM after 2 to 3 days at pH 5 condition", "assay_type": "functional, organism-based", "conditions": "dose microM 0.5-10, time day 2-3"}, "Jurkat [9]": {"system": "Jurkat", "test": "Cytotoxicity against human Jurkat cells assessed as reduction in cell viability in presence of pan-caspase inhibitor Z-VAD-FMK relative to control", "assay_type": "functional"}, "Saccharomyces cerevisiae [10]": {"system": "Saccharomyces cerevisiae", "test": "Antifungal activity against Saccharomyces cerevisiae W303 pdr5 deletion mutant assessed as reduction in microbial growth at 0.5 uM after 2 to 3 days", "assay_type": "functional, organism-based", "conditions": "time day 2-3"}, "Saccharomyces cerevisiae [11]": {"system": "Saccharomyces cerevisiae", "test": "Growth inhibition of Saccharomyces cerevisiae W303 pdr5 deletion mutant at 10 uM after 2 to 3 days in glycerol condition relative to control", "assay_type": "functional", "conditions": "time day 2-3, read-out: GI"}, "Saccharomyces cerevisiae [12]": {"system": "Saccharomyces cerevisiae", "test": "Antifungal activity against Saccharomyces cerevisiae W303 assessed as reduction in microbial growth at 10 uM after 2 to 3 days", "assay_type": "functional, organism-based", "conditions": "time day 2-3"}, "[13]": {"system": "Saccharomyces cerevisiae W303", "test": "Inhibition of V-ATpase in Saccharomyces cerevisiae […] vacuolar membranes at 80 nM after 10 mins by spectrophotometric based coupled enzyme assay", "assay_type": "cell membranes", "conditions": "Membrane"}, "Saccharomyces cerevisiae [14]": {"system": "Saccharomyces cerevisiae", "test": "Growth inhibition of Saccharomyces cerevisiae W303 at 0.5 to 10 uM after 2 to 3 days at pH 7.5 condition", "assay_type": "functional, organism-based", "conditions": "dose microM 0.5-10, time day 2-3"}, "[15]": {"system": "Saccharomyces cerevisiae W303", "test": "Inhibition of V-ATpase in Saccharomyces cerevisiae W303 pdr5 deletion mutant assessed as quinacrine accumulation in the cytosol at 10 uM after 4 hrs by fluorescence microscopic method", "assay_type": "subcellular"}, "Saccharomyces cerevisiae [16]": {"system": "Saccharomyces cerevisiae", "test": "Growth inhibition of Saccharomyces cerevisiae W303 pdr5 deletion mutant at 0.5 to 10 uM after 2 to 3 days at pH 7.5 condition", "assay_type": "functional, organism-based", "conditions": "dose microM 0.5-10, time day 2-3"}, "[17]": {"system": "Saccharomyces cerevisiae W303", "test": "Inhibition of V-ATpase in Saccharomyces cerevisiae W303 assessed as quinacrine accumulation in the cytosol at 0.5 uM after 4 hrs by fluorescence microscopic method", "assay_type": "subcellular"}, "Saccharomyces cerevisiae [18]": {"system": "Saccharomyces cerevisiae", "test": "Growth inhibition of Saccharomyces cerevisiae W303 pdr5 deletion mutant at 0.5 uM after 2 to 3 days in ammonium iron(II) sulfate condition", "assay_type": "functional, organism-based", "conditions": "time day 2-3"}, "[19]": {"system": "Saccharomyces cerevisiae W303", "test": "Inhibition of V-ATpase in Saccharomyces cerevisiae W303 pdr5 deletion mutant assessed as quinacrine accumulation in the cytosol at 0.5 uM after 4 hrs by fluorescence microscopic method", "assay_type": "subcellular"}, "Saccharomyces cerevisiae [20]": {"system": "Saccharomyces cerevisiae", "test": "Growth inhibition of Saccharomyces cerevisiae W303 pdr5 deletion mutant at 0.5 uM after 2 to 3 days in glycerol condition relative to control", "assay_type": "functional", "conditions": "time day 2-3, read-out: GI"}, "Saccharomyces cerevisiae [21]": {"system": "Saccharomyces cerevisiae", "test": "Growth inhibition of Saccharomyces cerevisiae W303 at 0.5 uM after 2 to 3 days in ammonium iron(II) sulfate condition", "assay_type": "functional, organism-based", "conditions": "time day 2-3"}, "Saccharomyces cerevisiae [22]": {"system": "Saccharomyces cerevisiae", "test": "Inhibition of V-ATpase in Saccharomyces cerevisiae BY4742 vacuolar membranes at 100 nM after 10 mins by spectrophotometric based coupled enzyme assay relative to control", "assay_type": "cell membranes", "conditions": "Membrane"}, "Saccharomyces cerevisiae [23]": {"system": "Saccharomyces cerevisiae", "test": "Growth inhibition of Saccharomyces cerevisiae W303 at 0.5 uM after 2 to 3 days in glycerol condition relative to control", "assay_type": "functional", "conditions": "time day 2-3, read-out: GI"}}, "note": "Activity calls are given as the source filed them. No cut-off for these calls is given here.", "data": [{"smiles": "CO/C1=C\\C(C)=C\\[C@@H](C)[C@@H](O)[C@@H](C)C/C(C)=C/C=C/[C@H](OC)[C@@H]([C@@H](C)[C@@H](O)[C@H](C)[C@@]2(O)C[C@@H](O)[C@H](C)[C@@H](C(C)C)O2)OC1=O", "note": "[BAFILOMYCIN A1]", "values": [{"measurement": "IC50", "setting": "[1]", "value": 4, "unit": "nM"}]}, {"smiles": "C[C@@H]1C/C=C\\C(=O)O[C@H](/C=C/C#C/C=C/C(C)(C)[C@@H](O)c2cccc(O)c2Br)[C@@H](C)/C=C/[C@H](C)C[C@H](OC(N)=O)C1", "values": [{"measurement": "inhibition of growth at 10 µM", "setting": "Saccharomyces cerevisiae [2]", "value": 100, "unit": "%"}, {"measurement": "inhibition", "setting": "[3]", "value": "Active"}, {"measurement": "growth inhibition (GI)", "setting": "Saccharomyces cerevisiae [4]", "value": "inactive"}, {"measurement": "IC50", "setting": "[1]", "value": 9.91, "unit": "nM"}, {"measurement": "growth inhibition (GI)", "setting": "Saccharomyces cerevisiae [5]", "value": "inactive"}, {"measurement": "growth inhibition (GI)", "setting": "Saccharomyces cerevisiae [6]", "value": "Active"}, {"measurement": "IC50", "setting": "Jurkat [7]", "value": 43, "unit": "nM"}, {"measurement": "growth inhibition (GI)", "setting": "Saccharomyces cerevisiae [8]", "value": "Active"}, {"measurement": "Activity", "setting": "Jurkat [9]", "value": "<3", "unit": "%"}, {"measurement": "Activity", "setting": "Saccharomyces cerevisiae [10]", "value": "Active"}, {"measurement": "inhibition of growth at 10 µM", "setting": "Saccharomyces cerevisiae [11]", "value": 100, "unit": "%"}, {"measurement": "Activity", "setting": "Saccharomyces cerevisiae [12]", "value": "Active"}, {"measurement": "inhibition", "setting": "[13]", "value": "Active"}, {"measurement": "growth inhibition (GI)", "setting": "Saccharomyces cerevisiae [14]", "value": "Active"}, {"measurement": "inhibition", "setting": "[15]", "value": "Active"}, {"measurement": "growth inhibition (GI)", "setting": "Saccharomyces cerevisiae [16]", "value": "Active"}]}, {"smiles": "C[C@@H]1C/C=C/C(=O)O[C@H](/C=C/C#C/C=C/C(C)(C)[C@@H](O)c2cccc(O)c2Br)[C@@H](C)/C=C/[C@H](C)C[C@H](OC(N)=O)C1", "values": [{"measurement": "IC50", "setting": "Jurkat [7]", "value": 115, "unit": "nM"}]}, {"smiles": "C/C=C/[C@H]1O[C@@](O)([C@@H](C)[C@H](O)[C@H](C)[C@H]2OC(=O)/C(OC)=C/C(C)=C/[C@@H](C)[C@@H](O)[C@@H](CC)[C@@H](O)[C@H](C)C/C(C)=C/C=C/[C@@H]2OC)C[C@@H](O[C@H]2C[C@@H](O)[C@H](OC(N)=O)[C@@H](C)O2)[C@@H]1C", "note": "[CONCANAMYCIN A]", "values": [{"measurement": "inhibition", "setting": "[17]", "value": "Active"}, {"measurement": "IC50", "setting": "[1]", "value": 3, "unit": "nM"}, {"measurement": "growth inhibition (GI)", "setting": "Saccharomyces cerevisiae [18]", "value": "inactive"}, {"measurement": "Activity", "setting": "Saccharomyces cerevisiae [10]", "value": "Active"}, {"measurement": "inhibition", "setting": "[19]", "value": "Active"}, {"measurement": "inhibition of growth at 0.5 µM", "setting": "Saccharomyces cerevisiae [20]", "value": 100, "unit": "%"}, {"measurement": "growth inhibition (GI)", "setting": "Saccharomyces cerevisiae [21]", "value": "inactive"}, {"measurement": "inhibition", "setting": "Saccharomyces cerevisiae [22]", "value": 75, "unit": "%"}, {"measurement": "inhibition of growth at 0.5 µM", "setting": "Saccharomyces cerevisiae [23]", "value": 100, "unit": "%"}]}]}
